Columns and labels:
[1] = molecular target: T1, Mitogen-activated protein kinase kinase kinase kinase 1 (Homo sapiens, UniProt Q92918); test: Binding affinity to recombinant human HPK1 (1 to 346 residues) expressed sf9 cells incubated for 1 hr by LanthaScreen assay
[2] = molecular target: T1, Mitogen-activated protein kinase kinase kinase kinase 1; test: Inhibition of human HPK1 in human Jurkat cells assessed as reduction in SLP76 phosphorylation incubated for 1 hr by HTRF assay; format: cell-based
[3] = Intrinsic clearance in human liver microsomes at 1 uM and measured upto 30 mins in presence of NADPH by LC-MS analysis; format: ADME, Microsome; details: read-out: CLH (converted)
Cytochrome P450 2C19 = Cytochrome P450 2C19 (Homo sapiens, UniProt P33261); test: Time dependent inhibition of CYP2C19 in human liver microsomes using S mephenytoin as substrate by LC-MS analysis; format: ADME, Microsome; details: TDE = time-dependent effect
Sequence of Cytochrome P450 2C19 (P33261 whole entry): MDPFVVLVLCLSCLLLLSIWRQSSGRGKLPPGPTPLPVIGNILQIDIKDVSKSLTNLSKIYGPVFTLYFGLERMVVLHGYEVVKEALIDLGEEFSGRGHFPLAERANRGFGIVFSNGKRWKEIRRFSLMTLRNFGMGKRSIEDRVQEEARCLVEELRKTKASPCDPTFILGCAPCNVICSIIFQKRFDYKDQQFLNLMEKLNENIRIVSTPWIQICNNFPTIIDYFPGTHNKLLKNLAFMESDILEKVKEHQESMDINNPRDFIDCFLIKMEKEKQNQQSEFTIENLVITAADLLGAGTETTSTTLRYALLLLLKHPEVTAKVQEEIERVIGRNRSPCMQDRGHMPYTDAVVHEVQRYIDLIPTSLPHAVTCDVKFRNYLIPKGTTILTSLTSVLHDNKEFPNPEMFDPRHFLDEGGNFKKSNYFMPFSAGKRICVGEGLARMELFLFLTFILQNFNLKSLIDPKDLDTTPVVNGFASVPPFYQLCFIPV

[4] = Clearance in Sprague-Dawley rat at 1.5 mg/kg, iv and measured upto 24 hrs by LC-MS/MS analysis; format: ADME, organism-based; details: in vivo
Cytochrome P450 3A4 [5] = molecular target: T2, Cytochrome P450 3A4 (Homo sapiens, UniProt P08684); test: Inhibition of CYP3A4 in human liver microsomes using midazolam as substrate by LC-MS analysis; format: ADME, Microsome
T2 sequence (P08684 whole entry): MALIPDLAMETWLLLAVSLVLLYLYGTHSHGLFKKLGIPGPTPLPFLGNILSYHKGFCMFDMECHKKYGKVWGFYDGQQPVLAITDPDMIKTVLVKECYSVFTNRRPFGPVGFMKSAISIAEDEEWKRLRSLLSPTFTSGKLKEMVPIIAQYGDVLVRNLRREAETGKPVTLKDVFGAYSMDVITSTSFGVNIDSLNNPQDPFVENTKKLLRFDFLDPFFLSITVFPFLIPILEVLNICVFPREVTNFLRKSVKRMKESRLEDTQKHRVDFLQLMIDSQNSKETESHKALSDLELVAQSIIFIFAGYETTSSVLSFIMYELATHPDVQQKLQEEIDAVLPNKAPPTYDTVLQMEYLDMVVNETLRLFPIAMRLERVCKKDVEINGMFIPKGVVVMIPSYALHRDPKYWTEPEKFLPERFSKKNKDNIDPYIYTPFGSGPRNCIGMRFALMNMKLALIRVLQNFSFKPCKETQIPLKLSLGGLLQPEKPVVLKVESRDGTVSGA

[6] = Volume of distribution at steady state in cynomolgus monkey at 1 mg/kg, iv and measured upto 24 hrs by LC-MS/MS analysis; format: ADME, organism-based, Macaca fascicularis; details: in vivo
Cytochrome P450 3A4 [7] = molecular target: T2, Cytochrome P450 3A4; test: Inhibition of CYP3A4 in human liver microsomes using testosterone as substrate by LC-MS analysis; format: ADME, Microsome
[8] = Oral bioavailability in cynomolgus monkey at 3 mg/kg and measured upto 24 hrs by LC-MS/MS analysis; format: ADME, organism-based, Macaca fascicularis; details: in vivo
[9] = molecular target: Mast/stem cell growth factor receptor Kit (Homo sapiens, UniProt P10721); test: Inhibition of KIT (unknown origin) in presence of ATP
Sequence of Mast/stem cell growth factor receptor Kit (P10721 whole entry): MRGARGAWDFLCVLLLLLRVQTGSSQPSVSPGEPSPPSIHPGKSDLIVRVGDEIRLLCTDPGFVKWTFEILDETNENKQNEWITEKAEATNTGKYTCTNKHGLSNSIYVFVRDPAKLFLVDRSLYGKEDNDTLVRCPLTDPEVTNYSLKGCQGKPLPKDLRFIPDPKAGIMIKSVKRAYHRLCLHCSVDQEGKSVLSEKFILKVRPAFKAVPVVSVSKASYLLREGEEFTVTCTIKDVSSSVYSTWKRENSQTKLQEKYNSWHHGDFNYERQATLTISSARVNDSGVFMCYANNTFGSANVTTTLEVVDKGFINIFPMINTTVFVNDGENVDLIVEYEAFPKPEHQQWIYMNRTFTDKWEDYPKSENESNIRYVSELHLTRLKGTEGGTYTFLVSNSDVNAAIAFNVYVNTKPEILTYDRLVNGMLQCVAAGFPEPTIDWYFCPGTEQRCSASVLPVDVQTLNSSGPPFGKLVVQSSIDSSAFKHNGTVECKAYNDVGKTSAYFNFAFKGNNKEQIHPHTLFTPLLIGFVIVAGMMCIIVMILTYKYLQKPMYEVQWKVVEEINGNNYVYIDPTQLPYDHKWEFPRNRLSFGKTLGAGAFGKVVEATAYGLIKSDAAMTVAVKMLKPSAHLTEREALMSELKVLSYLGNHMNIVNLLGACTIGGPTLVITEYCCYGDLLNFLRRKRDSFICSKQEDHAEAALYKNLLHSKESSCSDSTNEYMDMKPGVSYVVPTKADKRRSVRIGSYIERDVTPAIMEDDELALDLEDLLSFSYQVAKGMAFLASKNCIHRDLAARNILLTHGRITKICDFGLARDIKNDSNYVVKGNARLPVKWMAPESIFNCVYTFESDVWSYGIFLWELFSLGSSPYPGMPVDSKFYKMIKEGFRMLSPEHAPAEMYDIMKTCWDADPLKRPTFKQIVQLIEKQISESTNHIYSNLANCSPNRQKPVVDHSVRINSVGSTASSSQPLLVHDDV

[10] = Fraction unbound in human plasma by LC-MS/MS analysis; format: ADME, cell-free
[11] = Permeability across apical to basolateral side in human Caco2 cells at 50 uM and measured after 120 mins by LC-MS analysis; format: ADME, cell-based; details: Caco-2, read-out: permeability
[12] = Half life in cynomolgus monkey at 1 mg/kg, iv and measured upto 24 hrs by LC-MS/MS analysis; format: ADME, organism-based, Macaca fascicularis; details: in vivo
[13] = molecular target: T3, Receptor-type tyrosine-protein kinase FLT3 (Homo sapiens, UniProt P36888); test: Inhibition of FLT3 (unknown origin) in presence of ATP
T3 sequence (P36888 whole entry): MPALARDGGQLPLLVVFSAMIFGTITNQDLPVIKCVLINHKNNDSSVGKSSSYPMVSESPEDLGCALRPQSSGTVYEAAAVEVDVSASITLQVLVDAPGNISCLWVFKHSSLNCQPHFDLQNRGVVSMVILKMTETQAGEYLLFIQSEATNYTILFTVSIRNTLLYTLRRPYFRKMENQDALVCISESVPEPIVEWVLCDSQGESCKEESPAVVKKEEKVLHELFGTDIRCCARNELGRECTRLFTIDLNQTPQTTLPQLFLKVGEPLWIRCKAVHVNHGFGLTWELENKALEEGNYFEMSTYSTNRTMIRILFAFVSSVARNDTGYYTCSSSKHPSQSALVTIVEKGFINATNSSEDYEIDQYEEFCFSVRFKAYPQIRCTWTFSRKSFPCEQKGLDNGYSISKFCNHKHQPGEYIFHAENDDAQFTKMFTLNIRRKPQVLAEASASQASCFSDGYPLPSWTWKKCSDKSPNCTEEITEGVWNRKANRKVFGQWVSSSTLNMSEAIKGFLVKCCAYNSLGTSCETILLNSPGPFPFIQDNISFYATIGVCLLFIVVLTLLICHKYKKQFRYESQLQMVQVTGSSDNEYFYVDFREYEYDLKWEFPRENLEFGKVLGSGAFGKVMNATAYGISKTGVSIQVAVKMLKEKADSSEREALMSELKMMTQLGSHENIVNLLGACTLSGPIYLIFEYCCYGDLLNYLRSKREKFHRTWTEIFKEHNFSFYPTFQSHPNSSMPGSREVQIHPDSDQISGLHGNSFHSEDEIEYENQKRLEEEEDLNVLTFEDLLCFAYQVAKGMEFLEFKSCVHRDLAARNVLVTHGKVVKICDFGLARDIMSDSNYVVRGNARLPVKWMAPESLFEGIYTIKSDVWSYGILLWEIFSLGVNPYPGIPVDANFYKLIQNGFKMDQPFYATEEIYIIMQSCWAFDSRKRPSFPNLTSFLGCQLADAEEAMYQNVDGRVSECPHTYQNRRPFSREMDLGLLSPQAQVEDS

[14] = AUC in Sprague-Dawley rat at 3 mg/kg, po and measured upto 24 hrs by LC-MS/MS analysis; format: ADME, organism-based; design: dose 3 mg/kg, time < 24 hrs, route po; details: in vivo
[15] = Clearance in cynomolgus monkey at 1 mg/kg, iv and measured upto 24 hrs by LC-MS/MS analysis; format: ADME, organism-based, Macaca fascicularis; details: in vivo
[16] = AUC in cynomolgus monkey at 3 mg/kg, po and measured upto 24 hrs by LC-MS/MS analysis; format: ADME, organism-based, Macaca fascicularis; design: dose 3 mg/kg, time < 24 hrs, route po; details: in vivo

T1 sequence (Q92918 whole entry, the tested form may be a part): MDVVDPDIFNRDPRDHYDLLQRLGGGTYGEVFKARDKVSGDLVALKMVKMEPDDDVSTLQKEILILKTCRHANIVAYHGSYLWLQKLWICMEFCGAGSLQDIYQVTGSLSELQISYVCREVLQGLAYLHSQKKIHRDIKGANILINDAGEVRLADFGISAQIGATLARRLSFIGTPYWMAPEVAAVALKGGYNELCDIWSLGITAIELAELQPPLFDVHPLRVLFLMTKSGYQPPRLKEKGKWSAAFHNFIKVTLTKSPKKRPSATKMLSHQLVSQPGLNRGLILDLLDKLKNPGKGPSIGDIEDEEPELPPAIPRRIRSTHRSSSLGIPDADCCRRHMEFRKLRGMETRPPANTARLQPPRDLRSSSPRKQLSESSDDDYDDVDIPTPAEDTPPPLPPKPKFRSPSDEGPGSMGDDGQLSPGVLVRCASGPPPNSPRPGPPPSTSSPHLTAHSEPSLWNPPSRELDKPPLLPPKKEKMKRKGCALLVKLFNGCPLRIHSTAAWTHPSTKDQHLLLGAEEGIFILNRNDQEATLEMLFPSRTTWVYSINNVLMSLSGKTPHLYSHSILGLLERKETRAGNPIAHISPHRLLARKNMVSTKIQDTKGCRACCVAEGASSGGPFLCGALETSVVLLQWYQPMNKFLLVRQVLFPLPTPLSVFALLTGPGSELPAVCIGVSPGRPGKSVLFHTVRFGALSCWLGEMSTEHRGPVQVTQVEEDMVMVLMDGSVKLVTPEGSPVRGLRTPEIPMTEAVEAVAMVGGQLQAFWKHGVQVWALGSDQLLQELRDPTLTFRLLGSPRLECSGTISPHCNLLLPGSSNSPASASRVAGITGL

Row | SMILES | Ki [1] [nM] | IC50 [2] [nM] | CLint scaled at 1 µM [3] [mL/min/kg] | Papp A→B at 2 h, 50 µM [11] [×10⁻⁶ cm/s] | also measured
1 | COc1cccc(F)c1-c1ccc2[nH]nc(-c3ccc(N4CCN(C)CC4)cc3)c2n1 | 3 | 395 | > 18.3 | – | –
2 | COc1cccc(F)c1-c1ncc2[nH]nc(-c3ccc(N4CCN(C)CC4)cc3)c2n1 | 2.5 | 258 | > 18.3 | – | –
3 | CNCc1cc(C)c(-c2cc3c(-c4cnn(C)c4)n[nH]c3cn2)c(F)c1 | 2.7 | 91 | < 8.33 | 1.1 | inhibition (INH) (Cytochrome P450 2C19): Tde; clearance [4]: 118 mL/min/kg; IC50 (Cytochrome P450 3A4 [5]): > 25000 nM; Vdss [6]: 4.6 L/kg; IC50 (Cytochrome P450 3A4 [7]): > 25000 nM; bioavailability [8]: 7%; IC50 [9]: 7470 nM; fraction unbound [10]: 0.41; half-life [12]: 5.5 h; IC50 [13]: 1510 nM; AUC at 24 h [14]: 0.456 µM·h; clearance [15]: 20 mL/min/kg; AUC at 24 h [16]: 0.759 µM·h
4 | CN1CCN(c2ccc(Nc3ncc4ccc(-c5ccccc5)cc4n3)cc2)CC1 | 492 | – | – | – | –
5 | CNC(C)c1cc(C)c(-c2cc3c(-c4cnn(C)c4)n[nH]c3cn2)c(F)c1 (configuration not stated) | 4 | 94 | < 8.33 | 0.2 | clearance [4]: 93.3 mL/min/kg; Vdss [6]: 7.6 L/kg; bioavailability [8]: 50%; fraction unbound [10]: 0.49; half-life [12]: 8.6 h; AUC at 24 h [14]: 0.799 µM·h; clearance [15]: 18.3 mL/min/kg; AUC at 24 h [16]: 3.93 µM·h
6 | CN1CCN(c2ccc(-c3n[nH]c4ccc(-c5ccccc5)nc34)cc2)CC1 | 223 | – | – | – | –
7 | CNCc1cc(F)c(-c2cc3c(-c4cnn(C)c4)n[nH]c3cn2)c(F)c1 | 5.4 | 117 | < 8.33 | 0.7 | IC50 (Cytochrome P450 3A4 [5]): > 25000 nM; IC50 (Cytochrome P450 3A4 [7]): > 25000 nM; IC50 [9]: 1080 nM; IC50 [13]: 366 nM
8 | COc1cccc(F)c1-c1cc2c(-c3cnn(C)c3)n[nH]c2cn1 | 2 | 148 | 13.3 | – | –
9 | CNCc1cc(F)c(-c2cc3c(-c4cnn(C)c4)n[nH]c3cn2)c(OC)c1 | 3 | 219 | < 8.33 | 0.2 | IC50 [9]: 857 nM; IC50 [13]: 260 nM
10 | CN1CCN(c2ccc(-c3n[nH]c4cc(-c5ccccc5)cnc34)cc2)CC1 | 1150 | – | – | – | –
11 | CN1CCN(c2ccc(-c3n[nH]c4ccc(-c5ccccc5F)nc34)cc2)CC1 | 28 | 2740 | – | – | –
12 | COc1cccc(F)c1-c1cc2c(-c3ccc(N4CCN(C)CC4)cc3)n[nH]c2cn1 | < 1 | 144 | 18.3 | – | –
13 | Cc1cc(C2CCCCN2)cc(F)c1-c1cc2c(-c3cnn(C)c3)n[nH]c2cn1 (configuration not stated) | 4.6 | 138 | < 8.33 | 0.4 | clearance [4]: 80 mL/min/kg; Vdss [6]: 4.6 L/kg; bioavailability [8]: 55%; fraction unbound [10]: 0.5; half-life [12]: 8.9 h; AUC at 24 h [14]: 1.46 µM·h; clearance [15]: 9 mL/min/kg; AUC at 24 h [16]: 7.84 µM·h
14 | COc1cc(OC)c(F)c(-c2ncc3c(-c4ccc(N5CCN(C)CC5)cc4)n[nH]c3n2)c1F | 91 | – | – | – | –
15 | CNCc1cc(F)c(-c2cc3c(-c4cnn(C)c4)n[nH]c3cn2)c(C(F)(F)F)c1 | 3.5 | 128 | < 8.33 | 1.6 | inhibition (INH) (Cytochrome P450 2C19): Tde; IC50 (Cytochrome P450 3A4 [5]): > 25000 nM; IC50 (Cytochrome P450 3A4 [7]): > 25000 nM; IC50 [9]: 1980 nM; IC50 [13]: 2230 nM
16 | CCNCc1cc(C)c(-c2cc3c(-c4cnn(C)c4)n[nH]c3cn2)c(F)c1 | 5 | 137 | < 8.33 | 1.4 | clearance [4]: 102 mL/min/kg; Vdss [6]: 3.9 L/kg; bioavailability [8]: 16%; fraction unbound [10]: 0.61; half-life [12]: 6.3 h; AUC at 24 h [14]: 0.761 µM·h; clearance [15]: 11 mL/min/kg; AUC at 24 h [16]: 1.64 µM·h
17 | COc1cccc(F)c1-c1ncc2[nH]nc(-c3cnn(C)c3)c2n1 | 12 | 640 | 11.7 | – | –
